Test results: ChEMBL document CHEMBL5537205, “Discovery of D25, a Potent and Selective MNK Inhibitor for Sepsis-Associated Acute Spleen Injury” (J Med Chem, 2024)
Activity calls are given as the source filed them. The rule behind the calls is not given here.

Key:
Mus musculus [1] = test: Antiinflammatory activity in LPS-induced BALB/c sepsis mouse model assessed as decrease in iNOS level in spleen at 10 to 20 mg/kg, po preadministered with compound for 14 days followed by LPS stimulation and measured after 6 hrs by Western blot analysis; format: functional, organism-based; conditions: dose 10-20 mg/kg, time 342.0 hrs
[2] = target: MAP kinase-interacting serine/threonine-protein kinase 2 (Homo sapiens, UniProt Q9HBH9); test: Inhibition of MNK2 (unknown origin) incubated for 60 mins in presence of ATP by HTRF assay
Sequence of MAP kinase-interacting serine/threonine-protein kinase 2 (Q9HBH9 whole entry): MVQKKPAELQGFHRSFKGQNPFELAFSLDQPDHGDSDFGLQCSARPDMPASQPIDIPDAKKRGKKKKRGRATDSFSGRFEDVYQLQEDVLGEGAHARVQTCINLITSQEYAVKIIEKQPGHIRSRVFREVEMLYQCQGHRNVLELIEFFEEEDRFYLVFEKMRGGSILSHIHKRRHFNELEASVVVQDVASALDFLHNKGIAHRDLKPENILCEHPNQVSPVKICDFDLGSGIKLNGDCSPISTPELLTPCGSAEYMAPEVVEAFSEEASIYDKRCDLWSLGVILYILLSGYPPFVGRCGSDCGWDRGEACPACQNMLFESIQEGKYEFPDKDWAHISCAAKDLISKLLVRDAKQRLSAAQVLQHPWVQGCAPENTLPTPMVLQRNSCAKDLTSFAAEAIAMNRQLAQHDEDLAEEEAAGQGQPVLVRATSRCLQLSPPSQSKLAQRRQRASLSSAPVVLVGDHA

[3] = target: MAP kinase-interacting serine/threonine-protein kinase 1 (Homo sapiens, UniProt Q9BUB5); test: Inhibition of MNK1 (unknown origin) incubated for 60 mins in presence of ATP by HTRF assay
Sequence of MAP kinase-interacting serine/threonine-protein kinase 1 (Q9BUB5 whole entry): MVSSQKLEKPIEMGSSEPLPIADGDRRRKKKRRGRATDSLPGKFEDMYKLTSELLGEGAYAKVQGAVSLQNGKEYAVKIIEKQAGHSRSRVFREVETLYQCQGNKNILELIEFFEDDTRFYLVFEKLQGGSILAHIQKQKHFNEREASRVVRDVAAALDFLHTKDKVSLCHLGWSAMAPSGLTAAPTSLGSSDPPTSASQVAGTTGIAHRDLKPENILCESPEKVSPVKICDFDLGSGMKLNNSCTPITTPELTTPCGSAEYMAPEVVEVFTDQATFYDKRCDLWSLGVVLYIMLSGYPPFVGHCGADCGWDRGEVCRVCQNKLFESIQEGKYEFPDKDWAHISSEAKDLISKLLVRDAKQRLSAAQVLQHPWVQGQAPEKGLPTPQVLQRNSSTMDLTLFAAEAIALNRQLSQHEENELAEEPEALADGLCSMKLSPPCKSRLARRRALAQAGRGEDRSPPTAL

MV4-11 = test: Antiproliferative activity against human MV4-11 cells assessed as inhibition of cell proliferation at 20 uM incubated for 48 hrs by CCK8 assay relative to control; format: functional
RAW264.7 [4] = test: Antiinflammatory activity against mouse RAW264.7 cells assessed as inhibition of LPS-NO production at 20 uM by Griess reagent based assay relative to control; format: functional
RAW264.7 [5] = test: Antiinflammatory activity in LPS-induced mouse RAW264.7 cells assessed as increase in Arg1 protein expression by Western blot analysis; format: functional, cell-based; conditions: dose <= 20.0 µM
RAW264.7 [6] = test: Antiinflammatory activity against LPS-induced mouse RAW264.7 cells assessed as decrease in iNOS expression at 10 to 20 uM by Western blot analysis; format: functional, cell-based; conditions: dose 10-20 µM
RAW264.7 [7] = test: Antiinflammatory activity against LPS-induced mouse RAW264.7 cells assessed as decrease in IL-6 expression at 10 to 20 uM by Western blot analysis; format: functional, cell-based; conditions: dose 10-20 µM
RAW264.7 [8] = test: Antiinflammatory activity against LPS-induced mouse RAW264.7 cells assessed as decrease in COX-2 expression at 10 to 20 uM by Western blot analysis; format: functional, cell-based; conditions: dose 10-20 µM
RAW264.7 [9] = test: Antiinflammatory activity against LPS-induced mouse RAW264.7 cells assessed as inhibition of phosphorylated eIF4E expression preincubated for 1 hrs followed by LPS stimulation and measured after 1 hrs by DAPI staining based immunofluorescence analysis; format: functional, cell-based; conditions: dose 5-20 µM, time 2.0 hrs
Mus musculus [10] = test: Antiinflammatory activity in LPS-induced BALB/c sepsis mouse model assessed as reversal of LPS-induced kidney renal index at 20 mg/kg, po preadministered with compound for 14 days followed by LPS stimulation and measured after 6 hrs; format: functional, organism-based; conditions: time 342.0 hrs
Mus musculus [11] = test: Antiinflammatory activity in LPS-induced BALB/c sepsis mouse model assessed as reversal of LPS-induced lung […] index at 20 mg/kg, po preadministered with compound for 14 days followed by LPS stimulation and measured after 6 hrs; format: functional, organism-based; conditions: time 342.0 hrs
Mus musculus [12] = test: Antiinflammatory activity in LPS-induced BALB/c sepsis mouse model assessed as reversal of LPS-induced liver […] index at 20 mg/kg, po preadministered with compound for 14 days followed by LPS stimulation and measured after 6 hrs; format: functional, organism-based; conditions: time 342.0 hrs
Mus musculus [13] = test: Antiinflammatory activity in LPS-induced BALB/c sepsis mouse model assessed as decrease in inflammatory cells in spleen at 10 to 20 mg/kg, po preadministered with compound for 14 days followed by LPS stimulation and measured after 6 hrs by H&E staining based analysis; format: functional, organism-based; conditions: dose 10-20 mg/kg, time 342.0 hrs
Mus musculus [14] = test: Antiinflammatory activity in LPS-induced BALB/c sepsis mouse model assessed as decrease in serum AST level at 10 to 20 mg/kg, po preadministered with compound for 14 days followed by LPS stimulation and measured after 6 hrs; format: functional, organism-based; conditions: dose 10-20 mg/kg, time 342.0 hrs
Mus musculus [15] = test: Antiinflammatory activity in LPS-induced BALB/c sepsis mouse model assessed as decrease in serum BUN level at 10 to 20 mg/kg, po preadministered with compound for 14 days followed by LPS stimulation and measured after 6 hrs; format: functional, organism-based; conditions: dose 10-20 mg/kg, time 342.0 hrs
Mus musculus [16] = test: Antiinflammatory activity in LPS-induced BALB/c sepsis mouse model assessed as decrease in serum TNF-alpha level at 20 mg/kg, po preadministered with compound for 14 days followed by LPS stimulation and measured after 6 hrs by ELISA; format: functional, organism-based; conditions: time 342.0 hrs
Mus musculus [17] = test: Antiinflammatory activity in LPS-induced BALB/c sepsis mouse model assessed as decrease in serum IL-1beta level at 20 mg/kg, po preadministered with compound for 14 days followed by LPS stimulation and measured after 6 hrs by ELISA; format: functional, organism-based; conditions: time 342.0 hrs
Mus musculus [18] = test: Antiinflammatory activity in LPS-induced BALB/c sepsis mouse model assessed as decrease in serum IL-6 level at 20 mg/kg, po preadministered with compound for 14 days followed by LPS stimulation and measured after 6 hrs by ELISA; format: functional, organism-based; conditions: time 342.0 hrs
Mus musculus [19] = test: Antiinflammatory activity in LPS-induced BALB/c sepsis mouse model assessed as decrease in phosphorylated eIF4E level in spleen at 10 to 20 mg/kg, po preadministered with compound for 14 days followed by LPS stimulation and measured after 6 hrs by Western blot analysis; format: functional, organism-based; conditions: dose 10-20 mg/kg, time 342.0 hrs
Mus musculus [20] = test: Antiinflammatory activity in LPS-induced BALB/c sepsis mouse model assessed as decrease in COX-2 level in spleen at 10 to 20 mg/kg, po preadministered with compound for 14 days followed by LPS stimulation and measured after 6 hrs by Western blot analysis; format: functional, organism-based; conditions: dose 10-20 mg/kg, time 342.0 hrs
Mus musculus [21] = test: Antiinflammatory activity in LPS-induced BALB/c sepsis mouse model assessed as decrease in TNF-alpha level in spleen at 10 to 20 mg/kg, po preadministered with compound for 14 days followed by LPS stimulation and measured after 6 hrs by Western blot analysis; format: functional, organism-based; conditions: dose 10-20 mg/kg, time 342.0 hrs
Mus musculus [22] = test: Antiinflammatory activity in LPS-induced BALB/c sepsis mouse model assessed as decrease in IL-6 level in spleen at 10 to 20 mg/kg, po preadministered with compound for 14 days followed by LPS stimulation and measured after 6 hrs by Western blot analysis; format: functional, organism-based; conditions: dose 10-20 mg/kg, time 342.0 hrs
Mus musculus [23] = test: Antiinflammatory activity in LPS-induced BALB/c sepsis mouse model assessed as decrease in MDA level in serum at 20 mg/kg, po preadministered with compound for 14 days followed by LPS stimulation and measured after 6 hrs; format: functional, organism-based; conditions: time 342.0 hrs
Mus musculus [24] = test: Antiinflammatory activity in LPS-induced BALB/c sepsis mouse model assessed as increase in SOD level in serum at 20 mg/kg, po preadministered with compound for 14 days followed by LPS stimulation and measured after 6 hrs; format: functional, organism-based; conditions: time 342.0 hrs
Mus musculus [25] = test: Antiinflammatory activity in LPS-induced BALB/c sepsis mouse model assessed as increase in GSH level in serum at 20 mg/kg, po preadministered with compound for 14 days followed by LPS stimulation and measured after 6 hrs; format: functional, organism-based; conditions: time 342.0 hrs
RAW264.7 [26] = test: Antiinflammatory activity in LPS-induced mouse RAW264.7 cells assessed as reduction in ROS level at 5 to 20 uM pretreated with compound followed by LPS stimulation and measured after 1 hrs by flow cytometric analysis; format: functional, cell-based; conditions: dose 5-20 µM
[27] = AUC (0 to t) in Sprague-Dawley rat at 5 mg/kg, iv measured after 48 hrs; format: ADME, organism-based; conditions: in vivo
[28] = Half-life in Sprague-Dawley rat at 5 mg/kg, iv measured after 48 hrs; format: ADME, organism-based; conditions: in vivo
[29] = Clearance in Sprague-Dawley rat at 5 mg/kg, iv measured after 48 hrs; format: ADME, organism-based; conditions: in vivo
[30] = Cmax in Sprague-Dawley rat at 20 mg/kg, po measured after 48 hrs; format: ADME, organism-based; conditions: in vivo
[31] = Half-life in Sprague-Dawley rat at 20 mg/kg, po measured after 48 hrs; format: ADME, organism-based; conditions: in vivo

c1cc(-c2cc(C3CCNCC3)n[nH]2)c2cc[nH]c2n1
Activity (Mus musculus [1]): Active | IC50 [2]: 135 nM | IC50 [3]: 121 nM | inhibition at 20 µM (MV4-11): 98.5% | inhibition at 20 µM (RAW264.7 [4]): 70% | Activity (RAW264.7 [5]): Dose-Dependent Effect | Activity (RAW264.7 [6]): Active | Activity (RAW264.7 [7]): Active | Activity (RAW264.7 [8]): Active | Activity (RAW264.7 [9]): Dose-Dependent Effect | Activity (Mus musculus [10]): Active | Activity (Mus musculus [11]): Active | Activity (Mus musculus [12]): Active | Activity (Mus musculus [13]): Active | Activity (Mus musculus [14]): Active | Activity (Mus musculus [15]): Active | Activity (Mus musculus [16]): Active | Activity (Mus musculus [17]): Active | Activity (Mus musculus [18]): Active | Activity (Mus musculus [19]): Active | Activity (Mus musculus [20]): Active | Activity (Mus musculus [21]): Active | Activity (Mus musculus [22]): Active | Activity (Mus musculus [23]): Active | Activity (Mus musculus [24]): Active | Activity (Mus musculus [25]): Active | Activity (RAW264.7 [26]): Active | AUCt [27]: 1618 ng·h/mL | half-life [28]: 5.52 h | clearance [29]: 52 mL/min/kg | Cmax [30]: 26.2 ng/mL | half-life [31]: 3.34 h
